Test results reported in patent publication US11382878B2, “Use of metformin and sodium butyrate for treating conditions induced by chronic inflammation” (Johnpro Biotech Inc., priority 2017, dated 2022).

Legend:
[1] = system: radiation induced inflammation of the rectum; experiment: Radiation induced rectum inflammation in mice (gross rectum observation, H&E staining)
radiation proctitis = experiment: Clinical case: radiation proctitis patient treated by enema; type: in vivo, human; conditions: one patient, grade 3 radiation proctitis, sulfasalazine and steroids enema treatment for 6 months

SMILES | stool in the rectum (rectum mucosa function of absorbing water) ([1]; 30 Gy radiation on Day 1, rectal enema once daily Day 8 to Day 14, observed Day 14 (FIG. 4A, 4B)) | crypt tissue / damage to the intestine mucosa (H&E stain) ([1]; 30 Gy radiation on Day 1, rectal enema once daily Day 8 to Day 14, rectum samples Day 14 (FIG. 5A)) | response of symptoms to prior treatment (radiation proctitis)
C[C@]12CCC(=O)C=C1CC[C@@H]1[C@@H]2C(=O)C[C@@]2(C)[C@H]1CC[C@]2(O)C(=O)CO [cortisone] | a significant amount of loose stool was seen in the rectum | the crypt tissue was not observed | 
O=C(O)c1cc(/N=N/c2ccc(S(=O)(=O)Nc3ccccn3)cc2)ccc1O [sulfasalazine] |  |  | refractory
